Experimental data published in patent US10780061B2, “Composition comprising farnesol and use thereof” (Daegu Gyongbuk Institute of Science and Technology, priority 2014, dated 2020).

Columns and labels:
[1] = system: Myh2a-positive muscle fibers; experiment: Myh2a immunostaining of hind limb muscles, high fat diet (PGC-1α-inhibited) model; assay type: in vivo, mouse; details: high fat diet with 0.5% compound, 3 months
From the text: (§1) To prepare the PGC-1α-inhibited model, 3-month-old mouse (female, body weight of 20 g) is fed with high fat diet, in which fat is increased to 60%, compared to a negative control group, for 5 days (short-term effect) or 3 months (long-term effect). The negative control group is fed with a general diet. Farnesol is mixed in the high fat diet at a content of 0.5% (weight of farnesol/weight of diet). A positive control group is fed with high fat diet containing a type II diabetes drug, metformin at a content of 0.5% (weight of metformin/weight of diet). Mice are fed with the general diet, the high fat diet, and the high fat diet containing farnesol or metformin for 3 months, and then hind limbs are removed to analyze muscle differentiation and mitochondrial enzyme activity.
In FIG. 6C, SD represents a standard diet as a negative control group, HFD represents a high fat diet, and HFD+Farnesol or HFD-metformin represents farnesol or metformin-added HFD, respectively.

SDH enzyme activity = experiment: SDH staining of hind limb muscles, high fat diet model; assay type: in vivo, mouse; details: high fat diet with 0.5% compound, 3 months
From the text: as §1

PARIS, PGC-1α [2] = experiment: Immunoprecipitation for PGC-1α expression and PARIS-farnesylation, short-term high fat diet; assay type: in vivo, mouse; details: high fat diet with 0.5% compound, 5 days, gastrocnemius muscles
From the text: as §1
The effects of high fat diet and farnesol and metformin on PGC-1α induction by PARIS-farnesylation are evaluated. To analyze effect of short-term high fat diet, mice are fed with the above conditions for 5 days. Immunoblotting of PGC-1α and PARIS in gastrocnemius muscles of the mice is performed.
In this regard, PARIS-farnesylation is normalized to the immunoprecipitated PARIS expression level.

PARIS, PGC-1α [3] = experiment: Western blotting of hind limb muscles, high fat diet for 3 months; assay type: in vivo, mouse; details: high fat diet with 0.5% compound
From the text: as §1

[4] = for reference; cited from earlier work

Row | SMILES | percentage of Myh2a-postive muscle fibers [1] | percentage of muscle fibers showing increased SDH enzyme activity (SDH enzyme activity) | reduction in PARIS-farnesylation by high fat diet (PARIS, PGC-1α [2]) | reduction in PGC-1α expression by high fat diet (PARIS, PGC-1α [2]) | decreased PGC-1α expression by high fat diet (PARIS, PGC-1α [3]) | increased PARIS level by high fat diet (PARIS, PGC-1α [3]) | ID50 [4] [mg/kg]
1 | CN(C)C(=N)N=C(N)N [metformin, reference compound] | significantly increases | increased | inhibited | inhibited | inhibited | inhibited | –
2 | CC(=O)Oc1ccccc1C(=O)O [aspirin] | – | – | – | – | – | – | 250
